Here are results for 9 compounds from US5118804A, “Process for preparing alkyl-1-thioglycosides and alkyl-glycosides, anomer mixtures thereof” (Beghin-Say, SA, priority 1989, dated 1992).

For one data set, the system named is cytochrome P-45017α. Nature of the data set: Extraction of cytochrome P-45017α from bovine suprarenal cortex microsomes, and inactivation of the protein. The arrangement: unit not given here. Conditions: 30 mins. at 4° C, proteins 4 mg/ml, detergent 15 mg/ml. The source says:
(§1) These CMC values allow the glycosides to be used as detergents in membrane protein extraction. For example, but without implying any limitation with regard to other uses, several alkyl-1-thio-α,β-glycosides prepared in the manner of the invention were used to extract membrane proteins from the bovine suprarenal cortex. The suprarenal cortex cells contain enzyme systems which cause steroidogenesis. These are membrane enzymes in the mitochondrions (cytochromes P-45011β and P-450scc) and in the microsomes (cytochrome P-45017α). In conventionally used methods, they are optimally extracted in the presence of sodium cholate. However, the ionic nature of the sodium cholate detergent results in a greater denaturation rate of the enzymatic proteins as the contact time between the proteins and the sodium cholate is prolonged. Accordingly, and in particular, the sodium cholate detergent presents difficulties when used to reconstitute the lipid environment of these proteins.
The mitochondrions of the bovine suprarenal cortex are prepared in the manner of M. Satre & P. V. Vignais (Biochemistry, 13 (1974) 2201). The membrane proteins are extracted by incubation in a suitable buffer containing 50 mM potassium phosphate, pH=7.4, 1 mM dithiothreitol, 1 mM EDTA, and 10 μM desoxycorticosterone. The respective concentrations of proteins and detergents are 20 and 15 mg/ml. Following incubation, the medium is centrifuged (100,000 g, 45 mins.) and the cytochromes P-450 are metered into the supernatant by recording the differential spectrum for the reduced form Fe^2+ and the complex Fe^2+ CO. Denaturation is estimated by the absorption difference measured at 450 nm (native form) and 420 nm (denatured form).
The extraction of cytochrome P-45017α involved obtaining the bovine suprarenal cortex microsomes in the form of a button after 45 mins. centrifugation at 100,000 g of the post-mitochondrial supernatant. The membrane proteins are extracted as indicated above in reference to Table 2 for 30 mins. at 4° C. The respective concentrations of the proteins and detergents are 4 and 15 mg/ml. Following centrifugation, the activity of cytochrome P-45017α is measured in the supernatant by checking the transformation of (^3 H)-pregnenolone into (^3 H)-17α-hydroxy-pregnenolone.

The nature of data set [1]: Critical micelle concentration (CMC), Tsuchiya and Saito method. Particulars: α,β anomer mixtures. It counts as physicochemical. The source says: The critical micelle concentrations as measured according to the Tsuchiya and Saito method, J. Biochem., 96 (1984), 1593, are set forth in Table 1 for various fatty acid chain alkyl-1-thio-α,β-glycosides prepared according to the present invention.

In data set [2] the test system is cytochromes P-45011β and P-450scc. The experiment in a line: Extraction of cytochromes P-45011β and P-450scc from mitochondrions of the bovine suprarenal cortex, and inactivation of the proteins. Conditions: proteins 20 mg/ml, detergent 15 mg/ml; for Extraction rate [after 1 h] / Inactivation rate [after 1 h]: pH 7.4, after 1 h; for Extraction rate [after 2 h] / Inactivation rate [after 2 h]: pH 7.4, after 2 h.
Source text: as §1, with “For” for “These CMC values allow the glycosides to be used as detergents in membrane protein extraction. For”, “These are membrane enzymes in the mitochondrions (cytochromes P-45011β and P-450scc) and in the microsomes (cytochrome P-45017α).” left out
The membrane proteins are extracted by incubation in a suitable buffer containing 50 mM potassium phosphate, pH=7.4, 1 mM dithiothreitol, 1 mM EDTA, and 10 μM desoxycorticosterone. The respective concentrations of proteins and detergents are 20 and 15 mg/ml. Following incubation, the medium is centrifuged (100,000 g, 45 mins.) and the cytochromes P-450 are metered into the supernatant by recording the differential spectrum for the reduced form Fe^2+ and the complex Fe^2+ CO. Denaturation is estimated by the absorption difference measured at 450 nm (native form) and 420 nm (denatured form).

The conditions of data set [3]: Chem. Pharm. Bull., 33 (1985), 503-8; cited from earlier work.

With `CCCCCCCSC1O[C@H](CO)[C@@H](O)[C@H](O)[C@H]1O` (stereo partly drawn) [1-heptyl-1-thio-α,β-D-glucopyranoside], in the data set with cytochrome P-45017α, the Extraction rate turned out to be 85 and the Inactivation rate is 0. Moreover, in data set [1], the “Critical micelle concentration (CMC)” value was found to be 4.1 mM. In data set [2], this compound registered an Extraction rate [after 1 h] of 0%, an Inactivation rate [after 1 h] of 48%, an Extraction rate [after 2 h] of 0% and an Inactivation rate [after 2 h] of 47%.

In the data set on cytochrome P-45017α, `CCCCCCCSC1O[C@H](CO)[C@@H](O[C@@H]2O[C@H](CO)[C@H](O)[C@H](O)[C@H]2O)[C@H](O)[C@H]1O` (stereo partly drawn) [1-heptyl-1-thio-α,β-lactoside] gave an Extraction rate of 57 and an Inactivation rate of 0. In data set [2], this compound had an Extraction rate [after 1 h] of 0%, an Inactivation rate [after 1 h] of 30%, an Extraction rate [after 2 h] of 0% and an Inactivation rate [after 2 h] of 50%.

Regarding `CCCCCCCCSC1O[C@H](CO)[C@@H](O)[C@H](O)[C@H]1O` (stereo partly drawn) [1-octyl-1-thio-α,β- -- D-glucopyranoside, 1-octyl-1-thio-α,β-D-glucopyranoside], in the data set with cytochrome P-45017α, the Extraction rate was 93 and the Inactivation rate turned out to be 0. For the same compound, the “Critical micelle concentration (CMC)” value in data set [1] is 3.0 mM. Besides, in data set [2], the Extraction rate [after 1 h] was determined as 43%, the Inactivation rate [after 1 h] amounted to 60%, the Extraction rate [after 2 h] was found to be 49% and the Inactivation rate [after 2 h] is 72%.

As for `CCCCCCCCSC1O[C@H](CO)[C@@H](O[C@@H]2O[C@H](CO)[C@@H](O)[C@H](O)[C@H]2O)[C@H](O)[C@H]1O` (stereo partly drawn) [1-octyl-1-thio-α,β-cellobioside], in the data set with cytochrome P-45017α, the Extraction rate came out at 72 and the Inactivation rate stood at 0. In data set [1], the “Critical micelle concentration (CMC)” value was found to be 0.2 mM. In data set [2], this compound had an Extraction rate [after 1 h] of 0%, an Inactivation rate [after 1 h] of 55%, an Extraction rate [after 2 h] of 0% and an Inactivation rate [after 2 h] of 20%.

Take `CCCCCCCCSC1O[C@H](CO)[C@@H](O[C@@H]2O[C@H](CO)[C@H](O)[C@H](O)[C@H]2O)[C@H](O)[C@H]1O` (stereo partly drawn) [1-octyl-1-thio-α,β-lactoside]: in the data set with cytochrome P-45017α, the Extraction rate turned out to be 65 and the Inactivation rate is reported as 57. In data set [1], the “Critical micelle concentration (CMC)” value is given as 0.2 mM. In addition, in data set [2], the Extraction rate [after 1 h] turned out to be 0%, the Inactivation rate [after 1 h] is 55%, the Extraction rate [after 2 h] turned out to be 0% and the Inactivation rate [after 2 h] turned out to be 62%.

Consider `CCCCCCCCSC1O[C@H](CO)[C@@H](O[C@H]2O[C@H](CO)[C@@H](O)[C@H](O)[C@H]2O)[C@H](O)[C@H]1O` (stereo partly drawn) [1-octyl-1-thio-α,β-maltoside], for which, in the data set on cytochrome P-45017α, the Extraction rate came out at 58 and the Inactivation rate amounted to 0. In data set [1], the “Critical micelle concentration (CMC)” value was 0.2 mM. Moreover, in data set [2], the Extraction rate [after 1 h] is 0%, the Inactivation rate [after 1 h] turned out to be 48%, the Extraction rate [after 2 h] amounted to 21% and the Inactivation rate [after 2 h] is 94%.

Turning to `CCCCCCCCS[C@@H]1O[C@H](CO)[C@@H](O)[C@H](O)[C@H]1O` [1-octyl-1-thio-β- -- D-glucopyranoside, 1-octyl-1-thio-β-D-glucopyranoside, reference compound], in the data set with cytochrome P-45017α, the Extraction rate is 31 and the Inactivation rate turned out to be 0. Further, the “CMC of the prior art mentioned in the literature” value in data set [3] was 9.0 mM. Also, in data set [2], the Extraction rate [after 1 h] was 0%, the Inactivation rate [after 1 h] came to 18%, the Extraction rate [after 2 h] is 48% and the Inactivation rate [after 2 h] was 91%.

In the data set with cytochrome P-45017α, `CCCCCCCCO[C@@H]1O[C@H](CO)[C@@H](O)[C@H](O)[C@H]1O` [1-octyl-β-D-glucopyranoside, reference compound] showed an Extraction rate of 89 and an Inactivation rate of 20. In data set [2], this compound gave an Extraction rate [after 1 h] of 0%, an Inactivation rate [after 1 h] of 100%, an Extraction rate [after 2 h] of 0% and an Inactivation rate [after 2 h] of 100%.

In data set [2], `C[C@H](CCC(=O)O)[C@H]1CC[C@H]2[C@@H]3[C@H](O)C[C@@H]4C[C@H](O)CC[C@]4(C)[C@H]3C[C@H](O)[C@]12C` [sodium cholate, reference compound] returned an Extraction rate [after 1 h] of 0% and an Inactivation rate [after 1 h] of 94%.
